Assay results: patent US9428508B2, “2,4-diamino-6,7-dihydro-5H-pyrrolo[2,3]pyrimidine derivatives as FAK/Pyk2 inhibitors” (Centaurus BioPharma Co., Ltd., priority 2011, dated 2016)

Assays:
PYK2 = PYK2 (Homo sapiens (Human), UniProt Q14289); assay: Biochemical assay for PYK2 activity (LANCE TR-FRET, ULight-poly Glu,Ala,Tyr substrate); details: GST-tagged PYK2, 40 min reaction
Method in brief: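 GST-tagged human PYK2 (2 nM working stock) with ULight-poly Glu,Ala,Tyr (1:1:1) peptide (666 nM working stock) and ATP (46.6 μM working stock) in 40 mM Tris pH 7.5, MgCl2, 1 mM DTT, 1 mM CHAPS; 40 min reaction, EDTA quench. Phosphotyrosine read by LANCE Eu-anti-phosphotyrosine (PY20) TR-FRET after 60 min; 12-point 3-fold compound dilutions.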

FAK = FAK (Homo sapiens (Human), UniProt Q05397); assay: Biochemical assay for FAK activity (LANCE TR-FRET, ULight-poly Glu,Ala,Tyr substrate); details: GST-tagged FAK, 120 min reaction
Method in brief: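 GST-tagged FAK (2.5 nM working stock) with ULight-poly Glu,Ala,Tyr (666 nM stock) and ATP (33.3 μM stock) in Tris pH 7.5/MgCl2/DTT/CHAPS buffer with BSA, 120 min; EDTA-quenched. Phosphorylation read by TR-FRET with Eu-anti-phosphotyrosine (PY20) antibody after 60 min. Compounds tested as 12-point 3-fold dilutions.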

Chain of FAK (Q05397 whole entry): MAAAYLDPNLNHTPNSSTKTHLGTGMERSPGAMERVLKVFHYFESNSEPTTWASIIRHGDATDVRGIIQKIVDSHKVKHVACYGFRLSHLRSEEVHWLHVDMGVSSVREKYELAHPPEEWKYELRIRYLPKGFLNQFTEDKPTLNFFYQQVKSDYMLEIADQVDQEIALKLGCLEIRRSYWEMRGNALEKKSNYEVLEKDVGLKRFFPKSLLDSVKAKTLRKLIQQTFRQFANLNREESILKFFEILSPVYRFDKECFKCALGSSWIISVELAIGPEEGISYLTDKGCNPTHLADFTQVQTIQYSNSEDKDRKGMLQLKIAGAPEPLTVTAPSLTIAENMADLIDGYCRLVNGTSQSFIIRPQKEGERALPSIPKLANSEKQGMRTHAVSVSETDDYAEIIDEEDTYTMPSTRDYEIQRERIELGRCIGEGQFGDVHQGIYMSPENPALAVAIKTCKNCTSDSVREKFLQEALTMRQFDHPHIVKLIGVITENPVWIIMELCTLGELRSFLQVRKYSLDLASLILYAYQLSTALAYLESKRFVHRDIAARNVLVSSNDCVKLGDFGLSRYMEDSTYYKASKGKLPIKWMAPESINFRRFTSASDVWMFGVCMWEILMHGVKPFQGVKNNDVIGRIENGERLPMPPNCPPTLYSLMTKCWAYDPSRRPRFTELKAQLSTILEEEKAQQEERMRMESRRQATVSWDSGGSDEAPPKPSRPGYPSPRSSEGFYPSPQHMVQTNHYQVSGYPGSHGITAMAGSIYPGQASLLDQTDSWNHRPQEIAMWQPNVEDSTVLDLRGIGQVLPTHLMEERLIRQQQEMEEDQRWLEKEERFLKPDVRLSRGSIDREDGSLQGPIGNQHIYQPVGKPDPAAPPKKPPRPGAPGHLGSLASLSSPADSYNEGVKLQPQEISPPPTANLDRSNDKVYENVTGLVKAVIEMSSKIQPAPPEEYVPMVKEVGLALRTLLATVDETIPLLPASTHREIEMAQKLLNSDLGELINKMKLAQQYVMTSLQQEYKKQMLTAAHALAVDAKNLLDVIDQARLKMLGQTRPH
Chain of PYK2 (Q14289 whole entry): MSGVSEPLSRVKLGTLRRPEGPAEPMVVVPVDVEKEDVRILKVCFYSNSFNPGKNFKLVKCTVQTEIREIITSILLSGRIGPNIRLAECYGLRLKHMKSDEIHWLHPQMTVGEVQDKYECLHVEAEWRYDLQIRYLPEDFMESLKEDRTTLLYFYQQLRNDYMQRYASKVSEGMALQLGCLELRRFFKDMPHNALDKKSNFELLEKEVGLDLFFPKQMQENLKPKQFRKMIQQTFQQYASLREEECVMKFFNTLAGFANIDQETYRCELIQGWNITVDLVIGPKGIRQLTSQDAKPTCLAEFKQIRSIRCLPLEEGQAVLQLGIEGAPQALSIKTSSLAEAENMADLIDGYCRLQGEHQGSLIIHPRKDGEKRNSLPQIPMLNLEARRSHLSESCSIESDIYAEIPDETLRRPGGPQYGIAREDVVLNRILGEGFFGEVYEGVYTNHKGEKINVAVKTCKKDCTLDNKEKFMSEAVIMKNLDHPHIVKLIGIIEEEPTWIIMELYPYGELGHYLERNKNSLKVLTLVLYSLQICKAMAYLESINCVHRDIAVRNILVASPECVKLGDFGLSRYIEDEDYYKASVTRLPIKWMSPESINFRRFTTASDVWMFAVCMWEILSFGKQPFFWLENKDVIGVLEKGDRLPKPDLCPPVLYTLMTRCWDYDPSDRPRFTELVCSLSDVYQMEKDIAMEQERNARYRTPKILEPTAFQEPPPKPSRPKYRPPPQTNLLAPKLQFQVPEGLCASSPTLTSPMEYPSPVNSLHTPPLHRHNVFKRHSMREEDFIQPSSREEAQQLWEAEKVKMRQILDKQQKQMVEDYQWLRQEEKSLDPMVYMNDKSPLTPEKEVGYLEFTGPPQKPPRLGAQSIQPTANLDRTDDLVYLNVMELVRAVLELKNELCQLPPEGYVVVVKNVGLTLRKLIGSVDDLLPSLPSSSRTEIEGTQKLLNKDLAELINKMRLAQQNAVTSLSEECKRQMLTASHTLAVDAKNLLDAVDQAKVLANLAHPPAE

Row | Compound | IC50 (PYK2) [nM] | IC50 (FAK) [nM]
1 | COc1cc(N2CCOCC2)ccc1Nc1nc2c(c(Nc3ccccc3S(=O)(=O)N(C)C)n1)CCN2 [Example 38, 2-(2-(2-methoxy-4-morpholinophenylamino)-6,7-dihydro-5H-pyrrolo[2,3-d]pyrimidin-4-ylamino)-N,N-dimethylbenzenesulfonamide] | < 200 | < 50
2 | CCCNS(=O)(=O)c1ccccc1Nc1nc(Nc2ccc(N3CCOCC3)cc2OC)nc2c1C(C)CN2 (racemic) [Example 26, (±)-2-(2-(2-methoxy-4-morpholinophenylamino)-5-methyl-6,7-dihydro-5H-pyrrolo[2,3-d]pyrimidin-4-ylamino)-N-propylbenzenesulfonamide] | < 20 | < 20
3 | CNS(=O)(=O)c1ccc(Nc2nc3c(c(Nc4ccccc4S(=O)(=O)NC(C)C)n2)CCN3)cc1 [Example 64, N-isopropyl-2-(2-(4-(N-methylsulfamoyl)phenylamino)-6,7-dihydro-5H-pyrrolo[2,3-d]pyrimidin-4-ylamino)benzenesulfonamide] | < 20 | < 20
4 | COc1cc(N2CCOCC2)ccc1Nc1nc2c(c(Nc3cccc(C)n3)n1)C(C)CN2 (racemic) [Example 33, (±)-N^2-(2-methoxy-4-morpholinophenyl)-5-methyl-N^4-(6-methylpyridin-2-yl)-6,7-dihydro-5H-pyrrolo[2,3-d]pyrimidine-2,4-diamine] | < 1000 | < 500
5 | COc1cc(N2C(C)COCC2C)ccc1Nc1nc2c(c(Nc3ccccc3S(=O)(=O)NC(C)C)n1)CCN2 (stereo not shown) [Example 84, 2-(2-(4-(3,5-dimethylmorpholino)-2-methoxyphenylamino)-6,7-dihydro-5H-pyrrolo[2,3-d]pyrimidin-4-ylamino)-N-isopropylbenzenesulfonamide] | < 100 | < 50
6 | CC(C)NS(=O)(=O)c1ccccc1Nc1nc(Nc2ccc(N3CCOCC3)nc2)nc2c1CCN2 [Example 57, N-isopropyl-2-(2-(6-morpholinopyridin-3-ylamino)-6,7-dihydro-5H-pyrrolo[2,3-d]pyrimidin-4-ylamino)benzenesulfonamide] | < 20 | < 20
7 | COc1cc(N2CCOCC2)ccc1Nc1nc2c(c(Nc3ccccc3N(C)S(C)(=O)=O)n1)CCN2 [Example 10, N-(2-(2-(2-methoxy-4-morpholinophenylamino)-6,7-dihydro-5H-pyrrolo[2,3-d]pyrimidin-4-ylamino)phenyl)-N-methylmethanesulfonamide] | < 50 | < 100
8 | COc1cc(N2CCC(CO)CC2)ccc1Nc1nc2c(c(Nc3ccccc3S(=O)(=O)NC(C)C)n1)CCN2 [Example 79, 2-(2-(4-(4-(hydroxymethyl)piperidin-1-yl)-2-methoxyphenylamino)-6,7-dihydro-5H-pyrrolo[2,3-d]pyrimidin-4-ylamino)-N-isopropylbenzenesulfonamide] | < 20 | < 20
9 | COc1cc(OCCN2CCOCC2)ccc1Nc1nc2c(c(Nc3ccccc3S(=O)(=O)NC(C)C)n1)CCN2 [Example 70, N-isopropyl-2-(2-(2-methoxy-4-(2-morpholinoethoxy)phenylamino)-6,7-dihydro-5H-pyrrolo[2,3-d]pyrimidin-4-ylamino)benzenesulfonamide] | < 20 | < 20
10 | COc1cc(N2CCOCC2)ccc1Nc1nc2c(c(Nc3ccccc3S(=O)(=O)NC3CCC3)n1)[C@H](C)CN2 [Example 36, (S)—N-cyclobutyl-2-(2-(2-methoxy-4-morpholinophenylamino)-5-methyl-6,7-dihydro-5H-pyrrolo[2,3-d]pyrimidin-4-ylamino)benzenesulfonamide] | < 20 | < 20
11 | CNC(=O)c1ccccc1Nc1nc(Nc2ccc(N3CCOCC3)cc2OC)nc2c1C(C)(C)CN2 [Example 37, 2-(2-(2-methoxy-4-morpholinophenylamino)-5,5-dimethyl-6,7-dihydro-5H-pyrrolo[2,3-d]pyrimidin-4-ylamino)-N-methylbenzamide] | < 20 | < 20
12 | CCCNS(=O)(=O)c1ccccc1Nc1nc(Nc2ccc(N3CCOCC3)cc2OC)nc2c1CCN2 [Example 5, 2-(2-(2-methoxy-4-morpholinophenylamino)-6,7-dihydro-5H-pyrrolo[2,3-d]pyrimidin-4-ylamino)-N-propylbenzenesulfonamide] | < 20 | < 20
13 | CC(C)NS(=O)(=O)c1ccccc1Nc1nc(Nc2ccc(C(=O)N3CCCC3)cc2)nc2c1CCN2 [Example 78, N-isopropyl-2-(2-(4-(pyrrolidine-1-carbonyl)phenylamino)-6,7-dihydro-5H-pyrrolo[2,3-d]pyrimidin-4-ylamino)benzenesulfonamide] | < 20 | < 20
14 | COc1cc(N2CCOCC2)ccc1Nc1nc2c(c(Nc3ccccc3S(N)(=O)=O)n1)CCN2 [Example 41, 2-(2-(2-methoxy-4-morpholinophenylamino)-6,7-dihydro-5H-pyrrolo[2,3-d]pyrimidin-4-ylamino)benzenesulfonamide] | < 200 | < 50

Second part, the compound after the results:

Row | IC50 (PYK2) [nM] | IC50 (FAK) [nM] | Compound
15 | < 20 | < 20 | COc1cc(N2CCOCC2)ccc1Nc1nc2c(c(Nc3ccccc3S(=O)(=O)NC(C)(C)C)n1)C1(CC1)CN2 [Example 136, N-tert-butyl-2-(2′-(2-methoxy-4-morpholinophenylamino)-6′,7′-dihydrospiro[cyclopropane-1,5′-pyrrolo[2,3-d]pyrimidine]-4′-ylamino)benzenesulfonamide]
16 | < 20 | < 20 | C=CCNS(=O)(=O)c1ccccc1Nc1nc(Nc2ccc(N3CCOCC3)cc2OC)nc2c1C1(CC1)CN2 [Example 144, N-allyl-2-(2′-(2-methoxy-4-morpholinophenylamino)-6′,7′-dihydrospiro[cyclopropane-1,5′-Pyrrolo[2,3-d]pyrimidine]-4′-ylamino)benzenesulfonamide]
17 | < 20 | < 20 | COc1cc(N2CCOCC2)ccc1Nc1nc2c(c(Nc3ccccc3S(=O)(=O)NCC(C)C)n1)C(C)(C)CN2 [Example 107, N-isobutyl-2-(2-(2-methoxy-4-morpholinophenylamino)-5,5-dimethyl-6,7-dihydro-5H-pyrrolo[2,3-d]pyrimidin-4-ylamino)benzenesulfonamide]
18 | < 20 | < 20 | CCCNS(=O)(=O)c1ccccc1Nc1nc(Nc2ccc(N3CCOCC3)cc2OC)nc2c1C1(CC1)CN2 [Example 148, 2-(2′-(2-methoxy-4-morpholinophenylamino)-6′,7′-dihydrospiro[cyclopropane-1,5′-pyrrolo[2,3-d]pyrimidine]-4′-ylamino)-N-propylbenzenesulfonamide]
19 | < 20 | < 20 | COc1cc(-n2cc(C)nc2C)ccc1Nc1nc2c(c(Nc3ccccc3S(=O)(=O)NC(C)C)n1)CCN2 [Example 90, 2-(2-(4-(2,4-dimethyl-1H-imidazol-1-yl)-2-methoxyphenylamino)-6,7-dihydro-5H-pyrrolo[2,3-d]pyrimidin-4-ylamino)-N-isopropylbenzenesulfonamide]
20 | < 20 | < 20 | COc1cc(NCCN2CCOCC2)ccc1Nc1nc2c(c(Nc3ccccc3S(=O)(=O)NC(C)C)n1)CCN2 [Example 85, N-isopropyl-2-(2-(2-methoxy-4-(2-morpholinoethylamino)phenylamino)-6,7-dihydro-5H-pyrrolo[2,3-d]pyrimidin-4-ylamino)benzenesulfonamide]
21 | > 1000 | < 1000 | COc1cc(N2CCOCC2)ccc1Nc1nc2c(c(Nc3ccc(F)c(F)c3)n1)C(C)(C)CN2 [Example 125, N^4-(3,4-difluorophenyl)-N^2-(2-methoxy-4-morpholinophenyl)-5,5-dimethyl-6,7-dihydro-5H-pyrrolo[2,3-d]pyrimidine-2,4-diamine]
22 | < 200 | < 200 | COc1cc(N2CCOCC2)ccc1Nc1nc2c(c(Nc3ccccc3NC(C)=O)n1)C(C)(C)CN2 [Example 124, N-(2-(2-(2-methoxy-4-morpholinophenylamino)-5,5-dimethyl-6,7-dihydro-5H-pyrrolo[2,3-d]pyrimidin-4-ylamino)phenyl)acetamide]
23 | < 20 | < 20 | COc1cc(N2CCOCC2)ccc1Nc1nc2c(c(Nc3ccccc3S(=O)(=O)NCC3CC3)n1)C1(CC1)CN2 [Example 140, N-(cyclopropylmethyl)-2-(2′-(2-methoxy-4-morpholinophenylamino)-6′,7′-dihydrospiro[cyclopropane-1,5′-pyrrolo[2,3-d]pyrimidine]-4′-ylamino)benzenesulfonamide]
